Measured values reported in patent publication US20220091133A1, “METHODS AND ASSAYS FOR IMMUNE PHENOTYPING” (Washington University, priority 2020, published 2022).

Assays:
[1] = system: lymphocytes in infected wound; assay: Anti-CD3 immunohistochemical staining of wound biopsies; type: in vivo, human; conditions: after initiation of IL-7
Source text: A beneficial effect of IL-7 in infectious disorders is to increase expression of lymphocyte adhesion molecules and induce lymphocyte trafficking to sites of infection.

SARS-CoV-2 = assay: COVID-19-specific antibody levels (Example 5); type: in vivo, human; conditions: critically ill COVID-19 patient
[2] = system: pSTAT5 in CD4 and CD8 T cells; assay: Mass cytometry (CyTOF) of intracellular phospho-STAT5 in T cells; type: in vivo, human
Source text: To measure the specific molecular effects underlying the increased T cell responsiveness induced by IL-7, we measured intracellular levels of phospho-STATS (pSTAT5) in CD4 and CD8 T cells using mass cytometry. STATS is the primary T cell differentiation signal downstream of the IL-7 receptor [12]. T cells were identified based on surface marker staining (CD45+/CD15−/CD66b−/CD56−/CD3+). We then measured the pSTAT5 signal intensity. IL-7 was associated with a 3-fold increase in activated STATS in CD4-T cells and a 2-fold increase in CD8-T cells (FIG. 28C).

[3] = system: PBMCs (myeloid cell TNF-α production); assay: PBMC ELISpot, LPS-stimulated TNF-α production (Example 2); type: cell-based, human
Procedure: Fresh whole blood samples were processed within 90 min of collection as previously described (28). Briefly, blood was diluted in an equal volume of PBS and layered carefully on Ficoll Paque PLUS (GE Healthcare). The PBMC fraction was isolated following centrifugation at 500×g for 30 min at room temperature. The number of total PBMCs was determined with a Vi-CELL Viability Analyzer (Beckman Coulter, Brea, Calif.). Flow cytometry was performed on PBMC fraction for cell typing.
Innate and adaptive immune function was assessed using ELISpot analysis by measurement of the production of IFN-γ and TNF-α in ex vivo-stimulated cells following overnight culture. Capture Ab precoated 96-well polyvinylidene difluoride-backed strip plates were used for single color enzymatic assays (ImmunoSpot; Cellular Technology [CTL], Cleveland, Ohio) for detection of human IFN-γ and TNF-α. ELISpot culture procedure was followed as directed using instructions from the ELISpot kit. Samples were run in duplicate for each test condition. Plates were prepared with stimulant and were incubated at 37° C. and 5% CO2 for 30 min prior to plating cells. Identical conditions were prepared for comparison of whole blood assay to PBMC assay, and culture media alone was used as a negative control. Combination of 500 ng/ml of anti-CD3 (clone HIT3a; BioLegend) with 2.5 μg/ml of anti-CD28 (clone CD28.2; BioLegend) Abs were used to induce IFN-γ, and 2.5 ng/ml LPS (from Salmonella abortus equi S-form, ALX-581-009; Enzo Life Sciences, Farmingdale, N.Y.) was used to induce TNF-α wells. Total well volume for all samples was 200 μl. PBMCs were plated into wells in quantities of 2.5×10^4 cells per well for IFN-γ and 2.5×10^3 cells per well for TNF-α. […]
Samples were scanned, analyzed, and quality controlled for spot count, spot area, and TWI using a Cellular Technology series 6 ImmunoSpot Universal Analyzer with ImmunoSpot 7.0 professional software (Cellular Technology Analyzers, Shaker Heights, Ohio). […]
The number of cytokine-secreting cells present in each ELISpot well is referred to as spot-forming units (SFU) and is reported in two distinct ways. […] The number of lymphocytes in each well was determined based upon the absolute lymphocyte count as measured by the patients' complete blood count. For ELISpot studies involving PBMCs, flow cytometry was performed on the PBMC fraction, and the number of lymphocytes, monocytes, and residual neutrophils were determined. […] Samples were acquired on FACScan (Becton Dickenson, Franklin Lakes, N.J.) with a five-color modification (CyTek Biosciences, Fremont, Calif.) and analyzed using FlowJo 10.2 (FlowJo, Ashland, Oreg.) as previously described (28). […]

[4] = Enzyme-linked immunosorbent assays for plasma type I IFN levels (Example 5); type: in vivo, human; conditions: plasma of critically ill COVID-19 patient
[5] = system: peripheral blood mononuclear cells (T cell IFN-γ production); type: cell-based, human
[6] = system: sepsis-induced lymphopenia; conditions: clinical trial, reference 54; cited from earlier work
[7] = Serial plasma cytokines, ProcartaPlex 9-plex Luminex panel (Example 5); type: in vivo, human; conditions: plasma of critically ill COVID-19 patient
[8] = system: PBMCs (T cell IFN-γ production); type: cell-based, human

IL-7: recombinant human IL-7, immunoadjuvant and potent T cell activator; R&D Systems ex vivo, RevImmune for patients
number of CD3+ lymphocytes in biopsies from the infected wound [1]: marked increase
Coronavirus disease immunoglobulin G/M/A (SARS-CoV-2; Post IL-7, Day 12): High positive
Coronavirus disease immunoglobulin G/M/A (SARS-CoV-2; Post IL-7, Day 21): High positive
increase in activated STAT5 (pSTAT5 signal intensity) ([2]; CD4-T cells): 3 fold
increase in activated STAT5 (pSTAT5 signal intensity) ([2]; CD8-T cells): 2 fold
STAT5 expression in lymphocytes after initiation of IL-7 compared with pretreatment ([2]; CyTOF, geometric mean raw signal intensity): doubling
septic patients in whom IL-7 increased TNF-α production ([3]; PBMC ELISpot, patients out of total): 13/19
change in TNF-α SFUs with IL-7 ([3]; PBMC, CINS): significant increase
change in TNF-α SFUs with IL-7 ([3]; PBMCs, healthy subjects): no change
overall increase in TNF-α SFUs with IL-7 ([3]; PBMCs, septic patients, p<0.01): 97%
IFN-α (all subtypes) plasma concentration ([4]; Post IL-7, Day 12): Undetectable
IFN-β plasma concentration ([4]; Post IL-7, Day 12): 130 pg/mL
IFN-α (all subtypes) plasma concentration ([4]; Post IL-7, Day 21): Undetectable
IFN-β plasma concentration ([4]; Post IL-7, Day 21): 4.1 pg/mL
T cell function on coincubation with both dexamethasone and IL-7 [5]: restored
effect on sepsis-induced lymphopenia [6]: reversed sepsis-induced lymphopenia
tolerability of IL-7 in patients with sepsis [6]: well tolerated
IFN-γ plasma concentration ([7]; Post IL-7, Day 12): Undetectable
IL-1β plasma concentration ([7]; Post IL-7, Day 12): Undetectable
IL-2 plasma concentration ([7]; Post IL-7, Day 12): Undetectable
IL-6 plasma concentration ([7]; Post IL-7, Day 12): 30 pg/mL
IL-10 plasma concentration ([7]; Post IL-7, Day 12): 2.71 pg/mL
IL-12 plasma concentration ([7]; Post IL-7, Day 12): Undetectable
IL-17 plasma concentration ([7]; Post IL-7, Day 12): 0.14 pg/mL
Tumor necrosis factor-α plasma concentration ([7]; Post IL-7, Day 12): Undetectable
IFN-γ plasma concentration ([7]; Post IL-7, Day 21): Undetectable
IL-1β plasma concentration ([7]; Post IL-7, Day 21): Undetectable
IL-2 plasma concentration ([7]; Post IL-7, Day 21): Undetectable
IL-6 plasma concentration ([7]; Post IL-7, Day 21): 6 pg/mL
IL-10 plasma concentration ([7]; Post IL-7, Day 21): 0.83 pg/mL
IL-12 plasma concentration ([7]; Post IL-7, Day 21): Undetectable
IL-17 plasma concentration ([7]; Post IL-7, Day 21): 0.12 pg/mL
Tumor necrosis factor-α plasma concentration ([7]; Post IL-7, Day 21): Undetectable
mean number of IFN-γ-producing T cells following ex vivo administration of IL-7 ([8]; COVID-19 patient PBMCs, anti-CD3/anti-CD28 + IL-7 50 ng/mL overnight, control without IL-7 101±21, P<0.0001): 201±36
increase of IFN-γ production of stimulated T cells by ex vivo IL-7 ([8]; COVID-19 patients, ELISpot): ~2 fold
effect of IL-7 to increase the number of IFN-γ-producing T cells ([8]; septic and CINS patients): also observed
